These results are taken from patent US20140066449A1, “DIPYRIDINIUM DERIVATIVES” (SABREPHARM LIMITED, priority 2011, published 2014).

pIC50: −log10 of the molar value. Read-outs that look alike come from different tables or passages of the source.

In one data set the test system is rat. The following applies: oral; cited from earlier work.
A further data set relates to dog. The following applies: cited from earlier work.
Data set [1] concerns Modified mouse fibroblasts Nrf2−/−. The following applies: cited from earlier work.
In data set [2] the test system is cells (depending on the cell studied). The following applies: read-out: LC 50, in vitro; cited from earlier work.
Data set [3] relates to HEK293 cells. In words: ROS production in intact HEK293 cells (DCFDA, flow cytometry). It is filed as cell-based, human. The following applies: 5 mM, 48 hours, absence and presence of pluronic acid 0.1%. As for the experimental part:
The ability of test compounds to impact ROS production in intact HEK293 cells after 48 hours exposure was assessed.
HEK293 cells were stained with 2′,7′-dichlorofluorescein diacetate (DCFDA; 10 μM, 30 minutes, 37° C.). The cells were then washed and resuspended to 250×10^5/ml. The stained HEK293 cells were seeded into a 24 well plate ([…]) in DMEM supplemented with 10% FCS, antibiotics and L-glutamine. Drugs at indicated concentrations were added followed by incubation for 48 hours at 37° C. before HEK293 cells were washed, trypsinised and resuspended in PBS prior to analysis for ROS production by flow cytometry.

Data set [4] relates to HEK293 cells. In words: Cell death assay in HEK293 cells (PI staining, flow cytometry). It is filed as cell-based, human. The following applies: HEK293, 5 mM, 48 hours, in the presence of pluronic acid 0.1%. As for the experimental part:
The ability of test compounds to impact cell death in HEK293 cells after 48 hours exposure was assessed.
HEK293 cells were seeded into a 24 well plate ([…]) in DMEM supplemented with 10% FCS, antibiotics and L-glutamine. Drugs at indicated concentrations were added followed by incubation for 48 hours at 37° C. before HEK293 cells were washed, trypsinised and resuspended in PBS prior to PI staining (0.1 μg/ml) before analysis of PI+ ve cells by flow cytometry.
A general note: In flow cytometry, cells or beads pass a laser one at a time.

The test system of another data set is MCF7 [Breast]. The data set is described as follows: Combination with cisplatin, MCF-7. It is filed as cell-based, human.
For data set [5], the system named is HT-29 colon adenocarcinoma. The data set is described as follows: MTT in vitro cytotoxicity, HT-29. It is filed as cell-based. The following applies: Homo sapiens, 240 h, HT-29, 10 day exposure. As for the experimental part: (§1) All were stored in the dark at 4° C. An accurately weighed amount of each compound was dissolved in DMSO and Hank's Balanced Salt Solution (Sigma) according to Table 2 below:
(§2) Further dilutions were made in complete RPMI1640 cell culture medium (RPMI1640 cell culture medium supplemented with 10% foetal bovine serum, 1 mM L-glutamine, and 2 mM sodium pyruvate (all from Sigma)).
(§3) H460 non-small cell lung adenocarcinoma, HT-29 colon adenocarcinoma and MCF-7 breast adenocarcinoma (ECACC, Salisbury, Wiltshire) were used for analysis. Cells were cultured in complete RPMI1640 cell culture medium, and maintained as monolayer cultures at 37° C. in a humidified 5% CO2 environment.
(§4) Tumour cell growth inhibition was assessed using the MTT assay with a standard 96 hour plus an extended 10 day incubation. For the 96 hour assay 1×10^4 cells were inoculated into each well of a 96-well plate and incubated overnight at 37° C. in a humidified atmosphere containing 5% CO2 to give time to adhere to the wells and form a monolayer. For the 10 day incubation, 1×102 (H460 and HT-29) and 1×103 (MCF-7) cells were inoculated. The next day, culture medium was removed from each well and replaced with cell culture media for the untreated control, or media containing compound, and the plates then incubated for a further 96 hours or 10 days. […] After 96 hours or 10 days culture medium was removed and 200 μL of 0.5 mgmL-1 MTT solution (Sigma) in complete medium added to each well. Following a further 4 hours incubation, the solution was removed from each well and 150 μL of DMSO added to solubilise the formazan crystals resulting from MTT conversion. Absorbance values for the resulting solutions were read at 550 nm on a Multiskan Ex microplate reader (Thermo Fisher, Loughborough, UK) and cell survival calculated as the absorbance of treated cells divided by the control. Results are expressed in terms of IC50 values (i.e. concentration of compound required to kill 50% of cells), which were determined manually in Microsoft Excel from plots of concentration versus percentage cell survival, and all experiments were performed in triplicate.

The test system of another data set is A2780 [ovarian]. The data set is described as follows: Combination with cisplatin, A2780. It is filed as cell-based.
For a further data set, the system named is M 14 [melanoma]. The data set is described as follows: Combination with cisplatin, M14. It is filed as cell-based.
Data set [6] deals with human mitochondria isolated from HEK293 cells. The data set is described as follows: ROS production in isolated mitochondria (DCFDA). It is filed as biochemical. The following applies: isolated HEK293 mitochondria, 100 μM, 120 mins. As for the experimental part:
The ability of test compounds to impact ROS production in isolated mitochondria after 120 mins exposure was assessed.
Mitochondria were isolated from harvested human embryonic kidney (HEK293) cells (20×10^6) using a commercial kit (Thermo Scientific) before re-suspension in PBS to a final volume of 800 μL. […] Independent experiments (each assessing the impact of all four compounds along with a positive [AAPH; 5.0 mM] and vehicle control) were repeated three times.

Data set [7] deals with MCF-7 breast adenocarcinoma. The data set is described as follows: MTT in vitro cytotoxicity, MCF-7. It is filed as cell-based, human. The following applies: Homo sapiens, MCF7, 240 h, MCF-7, 10 day exposure. As for the experimental part: as §1, §2, §3, §4
The nature of data set [8]: Redox potential study, square wave voltammetry. The following applies: 0.1 mol dm-3 LiNTf2, 20° C., first scan. It is filed as physicochemical. As for the experimental part:
BioAnalytical Systems CV50W potentiostat (from BAS Inc., USA)
Square wave voltammetry (4 mV step, 25 mV pulse, 10 Hz SW frequency)
3 mm diameter glassy carbon working electrode (from BAS)
3 mm diameter glassy carbon counter electrode (from BAS)
Saturated calomel reference electrode (SCE, from Sycopel Scientific Ltd., UK)
0.1 mol dm-3 lithium bis(trifluoromethanesulphonyl)imide ((LiNTf2)CAS 90076-65-6, from 3M)
Voltammograms were recorded from 0.5 V to −1.2 V in deoxygenated solutions of the Compounds.

The test system of data set [9] is A2780/cis [cisplatin ovarian resistant line]. The data set is described as follows: Combination with cisplatin, A2780/cis. It is filed as cell-based.
Data set [10] relates to H460 non-small cell lung adenocarcinoma. The data set is described as follows: MTT in vitro cytotoxicity, H460. It is filed as cell-based. The following applies: Homo sapiens, NCI-H460, 240 h, H460, 10 day exposure. As for the experimental part: as §1, §2, §3, §4
[11] abbreviates: compound 10 μM + cisplatin 1 μM.
Where [12] appears, read: highest concentration 30 μM, read-out: IC50 Run 1.
Where [13] appears, read: highest concentration 100 μM, read-out: IC50 Run 2.
Where [14] appears, read: highest concentration 100 μM, read-out: IC50 Run 3.
The mark [15] stands for this setting: mean of runs, read-out: IC50 Mean.
Where [16] appears, read: compound 1 μM + cisplatin 10 μM.
Where [17] appears, read: compound 3 μM + cisplatin 10 μM.
[18] abbreviates: compound 10 μM + cisplatin 3 μM.
Where [19] appears, read: compound 10 μM + cisplatin 10 μM.

Consider `c1cc[n+]2c(c1)-c1cccc[n+]1CC2` [Diquat], for which the LD50 rat in the data set with rat is recorded as 231 mg/kg. In the data set on dog (in vivo, po), the LD50 dog is 100 to 200 mg/kg. In data set [1], the “sensitivity to diquat compared to normal unmodified [wildtype] cells” value is reported as “approximately a fourfold increase in sensitivity”. In data set [2], the CC50 is 40 to 180 µM.

Take `COc1cccc2c1C(=O)c1c(O)c3c(c(O)c1C2=O)C[C@@](O)(C(=O)CO)C[C@@H]3O[C@H]1C[C@H](N)[C@H](O)[C@H](C)O1` [Doxorubicin]: in the data set with rat, the LD50 rat was 12.5 mg/kg. Also, the LD50 dog in the data set with dog (oral) was 2.0 mg/kg.

With `CC(C)(N=NC(C)(C)C(=N)N)C(=N)N.Cl.Cl` [AAPH], the ROS production entry in the data set with HEK293 cells [3] was “induced ROS production in the absence and presence of pluronic acid”. The “cell death (PI staining)” value with HEK293 cells [4] is given as “inducedcell death in HEK293 cells in 2/3 experiments”.

Consider `CN(Cc1cnc2nc(N)nc(N)c2n1)c1ccc(C(=O)N[C@@H](CCC(=O)O)C(=O)O)cc1` [Methotrexate], for which the LD50 rat in the data set with rat is 180 to 320 mg/kg. The LD50 dog with dog (oral) was 120 mg/kg.

Consider `OCc1ccc2[n+](c1)CC[n+]1ccccc1-2` [Compound B, 3-(hydroxymethyl)-6,7-dihydrodipyrido[1,2-a:2′,1′-c]pyrazine-5,8-diium bistrifluoromethanesulfonate], for which the “% cell survival” value was determined as 87.3% with MCF7 [Breast] (compound 1 μM + cisplatin 0.1 μM); 77.9% in the data set with MCF7 [Breast] (compound 1 μM + cisplatin 0.3 μM); 72.3% in the data set on MCF7 [Breast] (compound 1 μM + cisplatin 1 μM); 76.2% with MCF7 [Breast] (compound 1 μM, cisplatin 0 μM); 81.4% in the data set with MCF7 [Breast] (compound 3 μM + cisplatin 0.1 μM); 73.2% in the data set on MCF7 [Breast] (compound 3 μM + cisplatin 0.3 μM). In addition, the “% cell survival” value in the data set on MCF7 [Breast] (compound 3 μM + cisplatin 1 μM) was determined as 74.3%; in the data set with MCF7 [Breast] (compound 3 μM, cisplatin 0 μM) it was 69.1%; in the data set with MCF7 [Breast] (compound 10 μM + cisplatin 0.1 μM), 63.7%; with MCF7 [Breast] (compound 10 μM + cisplatin 0.3 μM), 51.7%; in the data set on MCF7 [Breast] (setting [11]), 46.3%; in the data set on MCF7 [Breast] (compound 10 μM, cisplatin 0 μM), 67.3%. Also, the “% cell survival” value with A2780 [ovarian] (compound 1 μM + cisplatin 1 μM) is listed as 55.2%; in the data set on A2780 [ovarian] (compound 1 μM + cisplatin 3 μM), 20.3%; in the data set on A2780 [ovarian] (setting [16]), 5.5%; in the data set with A2780 [ovarian] (compound 1 μM, cisplatin 0 μM), 88.5%; in the data set on A2780 [ovarian] (compound 3 μM + cisplatin 1 μM) it was 46.3%; in the data set on A2780 [ovarian] (compound 3 μM + cisplatin 3 μM) it was 18.3%. Also, the “% cell survival” value with A2780 [ovarian] (setting [17]) amounted to 5.4%; in the data set with A2780 [ovarian] (compound 3 μM, cisplatin 0 μM), 59%; in the data set on A2780 [ovarian] (setting [11]), 20.4%; in the data set with A2780 [ovarian] (setting [18]), 11.7%; in the data set on A2780 [ovarian] (setting [19]) it was 3.9%; in the data set with A2780 [ovarian] (compound 10 μM, cisplatin 0 μM) it was 35.7%. Besides, the “% cell survival” value came out at 88.4% in the data set with M 14 [melanoma] (compound 1 μM + cisplatin 1 μM); 83.8% in the data set on M 14 [melanoma] (compound 1 μM + cisplatin 3 μM); 58.4% in the data set with M 14 [melanoma] (setting [16]); 93.2% in the data set with M 14 [melanoma] (compound 1 μM, cisplatin 0 μM); 78.9% in the data set on M 14 [melanoma] (compound 3 μM + cisplatin 1 μM); 72% with M 14 [melanoma] (compound 3 μM + cisplatin 3 μM). Also, the “% cell survival” value with M 14 [melanoma] (setting [17]) came to 47.1%; with M 14 [melanoma] (compound 3 μM, cisplatin 0 μM), 79.7%; in the data set on M 14 [melanoma] (setting [11]) it was 55.7%; in the data set on M 14 [melanoma] (setting [18]), 50.2%; in the data set on M 14 [melanoma] (setting [19]) it was 33.4%; in the data set on M 14 [melanoma] (compound 10 μM, cisplatin 0 μM) it was 59.2%. In addition, the “% cell survival” value in data set [9] (setting [16]) came to 32.1%; in [9] (compound 1 μM + cisplatin 30 μM), 6.5%; in data set [9] (compound 1 μM + cisplatin 100 μM) it was 0%; in [9] (compound 1 μM, cisplatin 0 μM), 74.4%; in data set [9] (setting [17]), 24.2%; in data set [9] (compound 3 μM + cisplatin 30 μM), 8.1%. Further, the “% cell survival” value came out at 3.3% in data set [9] (compound 3 μM + cisplatin 100 μM); 44.7% in data set [9] (compound 3 μM, cisplatin 0 μM); 9% in data set [9] (setting [19]); 5% in data set [9] (compound 10 μM + cisplatin 30 μM); 2.1% in [9] (compound 10 μM + cisplatin 100 μM); 15.4% in data set [9] (compound 10 μM, cisplatin 0 μM). For the same compound, the pIC50 (commonly −log10 of the IC50, conventionally taken in molar units) in [5] (setting [12]) was 5.74; in [5] (setting [13]), 5.92; in [5] (setting [14]) it was 5.74; in data set [5] (setting [15]) it was 5.80; in [7] (setting [12]) it was 5.57; in data set [7] (setting [13]) it was 5.64. Also, the pIC50 was 5.23 in [7] (setting [14]); 5.44 in [7] (setting [15]); 5.33 in [10] (setting [12]); 5.33 in data set [10] (setting [13]); 5.30 in [10] (setting [14]); 5.32 in data set [10] (setting [15]). For the same compound, the “rank order of efficacy (ROS production)” value in data set [6] was “F>G>B>A”. The “ROS production relative to vehicle treatment” value in data set [6] (room temperature) is recorded as “a more modest increase”. Also, the “Reduction potential 1” value in data set [8] is −0.460 V vs. SCE. Also, the “Reduction potential 2” value in [8] is −0.932 V vs. SCE.
